# Test results: ChEMBL document CHEMBL1201862, “PubChem BioAssay data set” (2004)
# Where “and” joins values, the source holds several entries; their conditions need not be identical. Equal values may be shown once. Calls of active or inactive are those of the source.
# Experiments:
# [1] = A375 melanoma cell viability loss, dose response, counter-screen for MITF inhibitor project, CellTiter-Glo luminescence, dry powder, set 4 (AID 624364); assay type: functional, cell-based; conditions: A-375;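 also: A375 melanoma cells are MITF independent so this is a counter screen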
# [2] = A375 melanoma cell cytotoxicity, dose response, counter-screen for MITF inhibitor project, CellTiter-Glo luminescence, dry powder, set 2 (AID 624489); assay type: functional, cell-based; conditions: A-375;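 also: actives are compounds lowering A375 viability meaning general cytotoxicity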
# [3] = LMP1-driven NF-kB reporter inhibition, dose response, cell-based, luciferase reporter, luminescence, dry powder, set 2 (AID 624376); assay type: functional
# Beta-lactamase [4] = target: Beta-lactamase (Salmonella choleraesuis (strain SC-B67), UniProt Q5J463); test: Epi-absorbance-based counterscreen for selective VIM-2 inhibitors: dose response biochemical high throughput screening assay to identify inhibitors of TEM-1 serine-beta-lactamase.
# Beta-lactamase (Salmonella choleraesuis (strain SC-B67), UniProt Q5J463), sequence (Q5J463 whole entry): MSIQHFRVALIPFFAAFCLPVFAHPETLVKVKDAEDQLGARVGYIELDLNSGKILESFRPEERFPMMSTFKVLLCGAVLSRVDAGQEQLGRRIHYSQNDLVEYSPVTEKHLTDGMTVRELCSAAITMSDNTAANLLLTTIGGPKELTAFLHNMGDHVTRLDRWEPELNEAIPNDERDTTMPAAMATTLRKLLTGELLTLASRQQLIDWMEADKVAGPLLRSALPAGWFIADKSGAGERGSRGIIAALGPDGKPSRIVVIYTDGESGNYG
# Beta-lactamase [5] = target: T1, Beta-lactamase (Pseudomonas aeruginosa, UniProt Q79MP6); test: […] counterscreen for selective VIM-2 inhibitors: dose response biochemical high throughput screening assay to identify inhibitors of IMP-1 metallo-beta-lactamase.
# T1 sequence (Q79MP6 whole entry): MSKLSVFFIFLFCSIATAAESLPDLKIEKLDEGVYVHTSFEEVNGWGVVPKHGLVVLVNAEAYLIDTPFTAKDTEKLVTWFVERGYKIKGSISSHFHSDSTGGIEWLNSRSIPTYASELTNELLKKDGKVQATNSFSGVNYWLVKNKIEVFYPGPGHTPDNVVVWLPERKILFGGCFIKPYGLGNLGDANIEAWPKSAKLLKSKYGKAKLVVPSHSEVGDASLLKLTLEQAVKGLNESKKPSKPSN
# Beta-lactamase [6] = target: T1, Beta-lactamase; test: IMP-1 metallo-beta-lactamase inhibitors, dose response, selectivity assay for VIM-2 inhibitor project, biochemical, epi-absorbance (AID 1920)
# [7] = target: Beta-2 adrenergic receptor (Homo sapiens, UniProt P07550); test: Dose response for HTS for Beta-2AR agonists via FAP method from Powderset3.; assay type: functional
# Beta-2 adrenergic receptor, sequence (P07550 whole entry): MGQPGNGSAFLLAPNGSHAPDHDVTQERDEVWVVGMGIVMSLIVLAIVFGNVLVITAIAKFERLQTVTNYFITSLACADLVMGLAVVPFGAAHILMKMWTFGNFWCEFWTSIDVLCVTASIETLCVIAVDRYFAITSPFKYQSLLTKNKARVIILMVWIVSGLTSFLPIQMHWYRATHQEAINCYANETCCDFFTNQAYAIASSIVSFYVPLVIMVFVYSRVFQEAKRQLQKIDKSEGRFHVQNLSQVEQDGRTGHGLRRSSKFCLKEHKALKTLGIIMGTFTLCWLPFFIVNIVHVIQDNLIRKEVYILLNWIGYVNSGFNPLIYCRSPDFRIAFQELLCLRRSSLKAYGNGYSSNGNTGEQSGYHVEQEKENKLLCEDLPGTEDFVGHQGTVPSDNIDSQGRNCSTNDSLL
# [8] = HepG2 cell cytotoxicity, dose response, cytotoxicity control, ATP luminescence, cherry-pick, activator set 2 (AID 1053143); assay type: functional, cell-based
# [9] = MALME3 melanoma cell viability reduction, dose response, orthogonal assay for MITF inhibitor project, CellTiter-Glo luminescence, dry powder, set 5 (AID 651584); assay type: functional, cell-based; conditions: MALME-3
# [10] = MITF Orthogonal Assay: MALME3 CTG Assay Measured in Cell-Based System Using Plate Reader - 2084-04_Inhibitor_Dose_DryPowder_Activity_Set6.; assay type: functional; conditions: MALME-3
# [11] = A375 melanoma cell viability loss, dose response, counter-screen for MITF modulator project, CellTiter-Glo luminescence, dry powder, set 9 (AID 651591); assay type: functional, cell-based; conditions: A-375
# [12] = SK-MEL-5 parental cell viability reduction, dose response, orthogonal assay for MITF inhibitor project, CellTiter-Glo luminescence, dry powder, set 8 (AID 651586); assay type: functional, cell-based
# [13] = TRPM1 promoter luciferase reporter signal decrease, dose response, MITF inhibitor project, cell-based, SK-MEL-5, dry powder, set 9 (AID 651588); assay type: functional
# [14] = MITF Orthogonal Assay: SK-MEL-5 CTG Assay Measured in Cell-Based System Using Plate Reader - 2084-02_Inhibitor_Dose_DryPowder_Activity_Set7.; assay type: functional
# [15] = MITF: Counter assay: A375 proliferation Measured in Cell-Based System Using Plate Reader - 2084-03_Inhibitor_Dose_DryPowder_Activity_Set8.; assay type: functional; conditions: A-375
# [16] = TRPM1 promoter luciferase reporter signal decrease, dose response, MITF inhibitor project, cell-based, SK-MEL-5, dry powder, set 8 (AID 624430); assay type: functional
# [17] = HEK293 cell viability, dose response, counter-screen for EBV LMP1 inhibitor project, dry powder, set 2 (AID 624374); assay type: functional
# [18] = CEM21 cell cytotoxicity, dose response, cytotoxicity control, plate reader, dry powder (AID 687026); assay type: functional, cell-based
# [19] = target: Protein disulfide-isomerase (Homo sapiens, UniProt P07237); test: PDI inhibitors, insulin turbidity readout, confirmation, biochemical, dry powder samples, set 2 (AID 652146)
# Protein disulfide-isomerase, sequence (P07237 whole entry): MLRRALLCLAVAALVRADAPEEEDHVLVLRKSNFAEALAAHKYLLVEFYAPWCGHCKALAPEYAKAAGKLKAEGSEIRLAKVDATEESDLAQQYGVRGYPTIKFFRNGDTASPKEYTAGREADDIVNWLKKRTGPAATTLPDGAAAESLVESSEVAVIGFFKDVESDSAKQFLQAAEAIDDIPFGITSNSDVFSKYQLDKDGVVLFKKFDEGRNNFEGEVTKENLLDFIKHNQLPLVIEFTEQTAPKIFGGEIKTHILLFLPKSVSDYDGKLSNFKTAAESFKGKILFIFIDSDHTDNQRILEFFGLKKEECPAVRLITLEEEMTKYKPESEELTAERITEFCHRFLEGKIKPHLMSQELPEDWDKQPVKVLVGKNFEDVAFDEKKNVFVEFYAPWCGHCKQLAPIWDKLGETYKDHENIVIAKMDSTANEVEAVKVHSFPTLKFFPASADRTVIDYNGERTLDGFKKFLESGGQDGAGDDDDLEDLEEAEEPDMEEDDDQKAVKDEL
# [20] = target: T2, Kappa-type opioid receptor (Homo sapiens, UniProt P41145); assay type: functional
# T2 sequence (P41145 whole entry): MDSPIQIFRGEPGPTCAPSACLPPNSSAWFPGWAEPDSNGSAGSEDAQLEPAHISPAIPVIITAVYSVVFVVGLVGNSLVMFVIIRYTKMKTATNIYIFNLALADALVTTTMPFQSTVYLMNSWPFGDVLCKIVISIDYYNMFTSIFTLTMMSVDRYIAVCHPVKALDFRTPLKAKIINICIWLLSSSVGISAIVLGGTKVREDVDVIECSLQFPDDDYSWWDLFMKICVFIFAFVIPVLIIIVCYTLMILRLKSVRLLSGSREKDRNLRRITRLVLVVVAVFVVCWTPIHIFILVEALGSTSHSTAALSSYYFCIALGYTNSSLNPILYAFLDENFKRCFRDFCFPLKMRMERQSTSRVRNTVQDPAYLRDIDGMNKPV
# [21] = Shn3 3'UTR reporter inhibitors, dose response, cell-based, Clone20 osteoblasts, firefly luciferase, cherry-picked (AID 624132); assay type: functional;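 also: firefly luciferase luminescence from reporter carrying the Shn3 3'UTR in osteoblasts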
# [22] = target: Heat shock protein HSP 90-alpha (Homo sapiens, UniProt P07900); assay type: functional, organism-based
# [23] = target: ATP-binding cassette sub-family B member 6 (Homo sapiens, UniProt Q9NP58); test: ABCB6 transporter inhibitors, porphyrin accumulation, dose response, flow cytometry, K562-ABCB6 cells, cherry pick 02 (AID 624487); assay type: functional; conditions: read-out: EC50_MICROM
# [24] = target: T2, Kappa-type opioid receptor; assay type: functional; remark: listed apart in the source
# Beta Lactamase = Beta Lactamase (Pseudomonas aeruginosa, UniProt Q932Y6); test: beta-lactamase reporter inhibitor potency, dose response, artefact control for TLR9-MyD88 binding inhibitor project, BLA reporter cells, FRET fluorescence (AID 588341); assay type: cell-based;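 also: cell based assay in CHO-K1 cells stably expressing beta-lactamase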
# Beta Lactamase, sequence (Q932Y6 whole entry): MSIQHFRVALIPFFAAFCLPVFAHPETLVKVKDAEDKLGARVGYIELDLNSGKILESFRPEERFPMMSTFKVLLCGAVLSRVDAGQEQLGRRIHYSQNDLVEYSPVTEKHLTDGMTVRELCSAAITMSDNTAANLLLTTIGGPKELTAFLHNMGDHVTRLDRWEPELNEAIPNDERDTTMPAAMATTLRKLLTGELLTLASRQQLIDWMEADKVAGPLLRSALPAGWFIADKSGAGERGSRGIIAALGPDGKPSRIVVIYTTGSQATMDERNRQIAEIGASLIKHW
# Beta-galactosidase = Beta-galactosidase (Escherichia coli, UniProt Q8VNN2); assay type: functional
# Protein RecA = target: T3, Protein RecA (Mycobacterium tuberculosis, UniProt P9WHJ3); test: Fluorescence Cell-Free Homogeneous Dose Retest to Identify Inhibitors of RecA-Intein Splicing Activity. [Related pubchem assays (depositor defined):AID2097, AID2223, AID489010, AID492950]; assay type: functional
# T3 sequence (P9WHJ3 whole entry): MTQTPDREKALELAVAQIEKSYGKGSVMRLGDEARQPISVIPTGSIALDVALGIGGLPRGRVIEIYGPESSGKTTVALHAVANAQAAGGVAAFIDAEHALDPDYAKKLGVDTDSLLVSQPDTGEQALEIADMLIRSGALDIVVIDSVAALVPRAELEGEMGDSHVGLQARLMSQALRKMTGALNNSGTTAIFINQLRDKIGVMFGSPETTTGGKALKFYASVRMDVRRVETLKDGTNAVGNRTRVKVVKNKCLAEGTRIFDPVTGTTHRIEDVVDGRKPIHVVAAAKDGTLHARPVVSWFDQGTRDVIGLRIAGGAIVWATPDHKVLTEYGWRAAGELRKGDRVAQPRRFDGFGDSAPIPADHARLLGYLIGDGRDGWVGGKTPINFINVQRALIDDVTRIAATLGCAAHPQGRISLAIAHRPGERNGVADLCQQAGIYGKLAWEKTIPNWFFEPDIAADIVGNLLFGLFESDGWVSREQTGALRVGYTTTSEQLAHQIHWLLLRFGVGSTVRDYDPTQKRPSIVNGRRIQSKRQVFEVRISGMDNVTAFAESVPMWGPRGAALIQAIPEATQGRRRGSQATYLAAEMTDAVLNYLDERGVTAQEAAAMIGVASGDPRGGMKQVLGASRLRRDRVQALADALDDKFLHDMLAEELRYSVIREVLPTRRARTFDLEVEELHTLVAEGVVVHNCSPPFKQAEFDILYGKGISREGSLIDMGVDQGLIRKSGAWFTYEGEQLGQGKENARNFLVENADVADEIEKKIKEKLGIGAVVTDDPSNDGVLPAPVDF
# [25] = target: T4, Delta-type opioid receptor (Homo sapiens, UniProt P41143); test: HTS Image-Based Screen for Agonists of the DOR Receptor. [Related pubchem assays (depositor defined):AID1777, AID1786, AID2133]; assay type: functional
# T4 sequence (P41143 whole entry): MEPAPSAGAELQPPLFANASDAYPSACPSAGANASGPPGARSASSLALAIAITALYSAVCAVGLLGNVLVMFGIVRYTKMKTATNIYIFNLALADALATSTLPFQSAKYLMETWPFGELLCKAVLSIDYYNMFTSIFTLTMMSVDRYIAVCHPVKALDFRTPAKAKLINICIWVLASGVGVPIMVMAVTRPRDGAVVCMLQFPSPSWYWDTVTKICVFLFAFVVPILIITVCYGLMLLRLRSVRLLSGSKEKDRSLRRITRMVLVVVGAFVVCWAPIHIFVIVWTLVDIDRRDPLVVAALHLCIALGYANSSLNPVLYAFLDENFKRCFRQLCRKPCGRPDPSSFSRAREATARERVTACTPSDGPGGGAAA
# [26] = HepG2 cell cytotoxicity, dose response, cytotoxicity control for Shn3 inhibitor project, CellTiter-Glo, cherry-picked (AID 624134); assay type: functional, cell-based
# Mu-type opioid receptor = Mu-type opioid receptor (Homo sapiens, UniProt P35372); test: HTS Image-Based Screen for Agonists of the MOR Receptor. [Related pubchem assays (depositor defined):AID1777, AID1785, AID1786, AID2133]; assay type: functional;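 also: imaging of beta-arrestin GFP recruitment into spots after receptor activation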
# Mu-type opioid receptor, sequence (P35372 whole entry): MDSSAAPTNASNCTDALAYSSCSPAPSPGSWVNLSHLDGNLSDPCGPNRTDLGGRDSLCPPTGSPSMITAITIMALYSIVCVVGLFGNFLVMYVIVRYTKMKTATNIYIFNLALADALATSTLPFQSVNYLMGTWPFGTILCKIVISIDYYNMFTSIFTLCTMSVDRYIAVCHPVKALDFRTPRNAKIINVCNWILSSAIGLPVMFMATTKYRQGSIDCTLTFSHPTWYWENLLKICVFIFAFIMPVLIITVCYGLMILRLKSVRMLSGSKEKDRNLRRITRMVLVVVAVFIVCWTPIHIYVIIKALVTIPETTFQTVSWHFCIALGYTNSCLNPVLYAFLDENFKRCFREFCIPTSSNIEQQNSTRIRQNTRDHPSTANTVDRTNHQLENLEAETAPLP
# [27] = target: T5, Replicative DNA helicase DnaB (Mycobacterium tuberculosis, UniProt P9WMR3); test: DnaB intein splicing inhibitors, dose response, biochemical, cell-free fluorescence (AID 449749); assay type: functional
# T5 sequence (P9WMR3 whole entry): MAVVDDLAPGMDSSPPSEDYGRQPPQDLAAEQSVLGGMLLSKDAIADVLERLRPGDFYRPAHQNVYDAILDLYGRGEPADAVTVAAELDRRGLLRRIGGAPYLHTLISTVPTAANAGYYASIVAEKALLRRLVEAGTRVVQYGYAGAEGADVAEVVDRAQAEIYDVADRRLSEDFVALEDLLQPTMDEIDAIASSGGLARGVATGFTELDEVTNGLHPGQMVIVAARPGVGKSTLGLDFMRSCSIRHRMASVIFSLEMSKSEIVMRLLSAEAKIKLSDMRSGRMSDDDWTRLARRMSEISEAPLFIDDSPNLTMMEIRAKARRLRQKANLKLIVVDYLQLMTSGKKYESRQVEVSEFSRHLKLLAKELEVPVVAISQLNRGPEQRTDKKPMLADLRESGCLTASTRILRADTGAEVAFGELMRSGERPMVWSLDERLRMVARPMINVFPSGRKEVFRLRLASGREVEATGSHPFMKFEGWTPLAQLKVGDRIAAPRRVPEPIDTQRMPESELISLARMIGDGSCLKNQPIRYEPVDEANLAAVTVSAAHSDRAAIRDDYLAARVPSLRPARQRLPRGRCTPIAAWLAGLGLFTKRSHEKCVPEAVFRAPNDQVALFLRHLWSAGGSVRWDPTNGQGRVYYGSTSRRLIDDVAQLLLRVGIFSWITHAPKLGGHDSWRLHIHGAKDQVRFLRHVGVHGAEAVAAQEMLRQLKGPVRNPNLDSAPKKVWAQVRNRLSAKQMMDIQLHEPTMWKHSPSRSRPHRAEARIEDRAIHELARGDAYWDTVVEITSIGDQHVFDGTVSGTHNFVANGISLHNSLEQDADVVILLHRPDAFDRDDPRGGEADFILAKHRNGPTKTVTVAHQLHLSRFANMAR
# CHO = test: cytotoxicity in TLR9-MyD88 CHO cells, dose response, cytotoxicity control for TLR9-MyD88 binding inhibitor project, cell-based, luminescence (AID 588339); assay type: functional, hamster; conditions: Cricetulus griseus;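 also: CHO cells stably coexpressing TLR9 and MyD88 fusions from primary screen; compound exposure lasted 48 hours before viability readout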
# [28] = target: T4, Delta-type opioid receptor; test: HTS Image-Based Screen for Antagonists of the DOR Receptor. [Related pubchem assays (depositor defined):AID1777, AID1785, AID1786, AID2133]; assay type: functional
# [29] = control 3'UTR Renilla luciferase suppression, dose response, counter-screen for Shn3 inhibitor project, cell-based, Clone20-Shn3RL, cherry-picked (AID 624133); assay type: functional
# [30] = target: Disintegrin and metalloproteinase domain-containing protein 17 (Homo sapiens, UniProt P78536); test: exosite inhibitors of ADAM17, dose response, biochemical (AID 743260)
# Disintegrin and metalloproteinase domain-containing protein 17, sequence (P78536 whole entry, the tested form may be a part): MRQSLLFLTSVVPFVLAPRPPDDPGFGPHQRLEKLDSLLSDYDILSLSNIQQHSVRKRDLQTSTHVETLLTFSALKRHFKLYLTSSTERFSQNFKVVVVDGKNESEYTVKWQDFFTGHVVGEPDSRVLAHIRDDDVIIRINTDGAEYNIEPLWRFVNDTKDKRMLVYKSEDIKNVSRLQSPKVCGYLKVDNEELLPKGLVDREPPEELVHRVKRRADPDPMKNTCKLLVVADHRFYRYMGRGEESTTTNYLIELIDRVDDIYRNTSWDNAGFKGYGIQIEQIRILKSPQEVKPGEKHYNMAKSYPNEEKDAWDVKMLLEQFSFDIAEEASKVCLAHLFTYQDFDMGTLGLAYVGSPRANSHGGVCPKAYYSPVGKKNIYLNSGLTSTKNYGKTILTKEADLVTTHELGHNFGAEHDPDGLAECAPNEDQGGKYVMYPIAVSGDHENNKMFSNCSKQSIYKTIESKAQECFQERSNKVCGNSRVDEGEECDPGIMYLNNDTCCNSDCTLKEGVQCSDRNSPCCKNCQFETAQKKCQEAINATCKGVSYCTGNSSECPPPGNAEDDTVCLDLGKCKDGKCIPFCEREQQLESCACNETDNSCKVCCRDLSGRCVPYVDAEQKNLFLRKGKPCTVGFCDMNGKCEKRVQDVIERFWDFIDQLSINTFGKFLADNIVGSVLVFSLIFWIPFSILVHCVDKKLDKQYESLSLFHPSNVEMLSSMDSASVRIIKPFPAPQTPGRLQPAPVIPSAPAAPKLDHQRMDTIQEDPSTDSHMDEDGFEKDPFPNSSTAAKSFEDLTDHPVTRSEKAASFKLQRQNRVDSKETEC
# [31] = ADAM10 protease inhibitors, dose response, selectivity assay for ADAM17 exosite inhibitor project, biochemical, FRET peptide substrate, recombinant human ADAM10 (AID 743259);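 also: ADAM10 enzyme cleaving a FRET peptide substrate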
# NS3 = NS3 (Hepatitis C virus, UniProt A3EZJ3); test: HCV NS3 helicase inhibitor potency, dose response, biochemical, fluorescence polarization, ChemBridge library (AID 743264)
# NS3, sequence (A3EZJ3 whole entry): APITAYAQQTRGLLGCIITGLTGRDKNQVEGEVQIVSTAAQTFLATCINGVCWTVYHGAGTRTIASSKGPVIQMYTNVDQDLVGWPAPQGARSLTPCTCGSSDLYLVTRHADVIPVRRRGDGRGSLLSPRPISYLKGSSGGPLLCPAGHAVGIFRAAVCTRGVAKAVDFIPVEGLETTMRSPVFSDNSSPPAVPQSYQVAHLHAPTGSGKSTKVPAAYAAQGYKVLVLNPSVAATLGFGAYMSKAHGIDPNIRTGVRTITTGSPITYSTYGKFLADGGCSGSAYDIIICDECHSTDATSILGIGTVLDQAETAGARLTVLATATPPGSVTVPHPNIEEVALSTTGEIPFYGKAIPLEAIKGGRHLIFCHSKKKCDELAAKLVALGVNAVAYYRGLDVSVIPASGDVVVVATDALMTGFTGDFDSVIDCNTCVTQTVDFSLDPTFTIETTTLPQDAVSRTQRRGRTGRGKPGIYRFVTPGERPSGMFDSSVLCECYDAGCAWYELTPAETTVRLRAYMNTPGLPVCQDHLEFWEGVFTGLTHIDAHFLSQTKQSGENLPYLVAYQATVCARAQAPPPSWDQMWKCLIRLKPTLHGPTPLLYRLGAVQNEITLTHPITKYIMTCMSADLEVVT
# [32] = inhibitors of TNFa-stimulated NF-kB luciferase reporter, dose response, selectivity assay for EBV LMP1 NF-kB inhibitor project, HEK293 LMP1 reporter cells, dry powder, set 2 (AID 624369); assay type: functional
smiles,measurement,setting,value
O=C1C(NS(=O)(=O)c2ccc(Br)s2)=C(N2CCOCC2)C(=O)c2ccccc21,AC50,[1],> 70 µM (inactive)
same,AC50,[2],> 70 µM (inactive)
COc1cccc(S(=O)(=O)N(C)C[C@@H]2Oc3cc(C4=CCCCC4)ccc3S(=O)(=O)N([C@@H](C)CO)C[C@@H]2C)c1,AbsAC35,[3],50.42 µM
S=c1[nH]nc(C2CC2)n1Cc1ccccc1,IC50,Beta-lactamase [4],> 59.6 µM (inactive)
same,IC50,Beta-lactamase [5],> 59.6 µM (inactive)
same,IC50,Beta-lactamase [6],> 59.6 µM (inactive)
COCc1ccc(CN2CCCC(C(=O)Nc3ccc(-c4cccc(OC)c4)cc3)C2)o1 (stereo not drawn),EC50,[7],607 µM (inactive)
COc1cccc(NC(=O)c2ccc3c(c2)N(C)CCS3)c1,AC50,[8],26 µM (active)
CCN1CCN(C2=C(Nc3ccc(F)cc3F)C(=O)c3ccccc3C2=O)CC1,AC50,[9],26.3 µM (active)
same,AC50,[10],26.3 µM (active)
same,AC50,[11],> 70 µM (inactive)
same,AC50,[12],> 70 µM (inactive)
same,AC50,[13],12.3 µM (active)
same,AC50,[14],8.99 µM (active)
same,AC50,[15],> 70 µM (inactive)
same,AC50,[16],2.41 µM (active)
CC(C)(C)[S@@+]([O-])N1Cc2cc(C(=O)NCc3ccccc3F)nc(-c3cccc(-c4cccnc4)c3)c2[C@H]1CCO,AbsAC35,[17],245.66 µM
Nc1nonc1C(=O)NCCNCc1c(OCc2ccccc2F)ccc2ccccc12,AC50,[18],> 70 µM (inactive) and 60.8 µM (active)
C/C1=C\C[C@H](OC(=O)c2ccc(O)cc2)/C(C)=C/[C@@H](O)C(C)(C)CCC1,AC50,[19],2 µM (active)
CCc1ccc(NC(=O)c2nc(S(=O)(=O)Cc3ccccc3)ncc2Cl)cc1,IC50,[20],7.28 µM
same,AC50,[21],0.551 µM (active)
same,AC50,[22],1.74 µM (active)
same,EC50,[23],23.9 µM (active)
same,IC50,[24],13.7 µM (active)
same,IC50,Beta Lactamase,12.1 µM (inactive)
same,EC50,Beta-galactosidase,> 31.5 µM (inactive)
same,EC50,Protein RecA,1.82 µM (active)
same,EC50,[25],> 32 µM (inactive)
same,AC50,[26],24.4 µM (active)
same,EC50,Mu-type opioid receptor,> 32 µM (inactive)
same,AC50,[27],2.28 µM (active)
same,IC50,CHO,2.91 µM (active)
same,IC50,[28],11.9 µM (inactive)
same,AC50,[29],8.1 µM (active)
COc1ccc(C(c2nnnn2Cc2ccccc2)N2CCN(C/C=C/c3ccccc3)CC2)cc1 (stereo not drawn),IC50,[30],> 69.5 µM (inactive)
same,IC50,[31],> 69.5 µM (inactive)
O=C1NC(=O)C(=Cc2ccc(-c3cc([N+](=O)[O-])ccc3O)o2)C(=O)N1,IC50,NS3,66.1 µM (active)
O=C(C[C@@H]1CC[C@H]2[C@@H](COC[C@H](O)CN2Cc2ccc(Oc3ccccc3)cc2)O1)N1CCc2ccccc2C1,AbsAC35,[32],67.78 µM
